Measurements from patent US20240316087A1, “Compositions And Methods For Inducing Apoptosis In Anaerobic Cells And Related Clinical Methods For Treating Cancer And Pathogenic Infections” (priority 2017, published 2024).
Read-outs that look alike come from different tables or passages of the source.

Test system: Stage IV cancer
Description: A ten-year, multi-center cancer study was conducted wherein we recruited a total of 675 Stage IV cancer patients. These patients were treated and closely monitored through four participating medical and naturopathic clinics, with each clinic following standard therapeutic, monitoring and reporting protocols for each patient over a minimum study period of five years. The patients in these studies were all diagnosed by standard diagnostic methods (e.g., using tumor visualization, cytology, biopsy, blood assays for circulating tumor markers, etc.) at the start of the study as having Stage IV cancer, according to conventional diagnostic standards. Cancer types were grouped by primary cancer cytology/histochemistry, patient history and other standard criteria.
Of the 675 enrolled patients, 128 patients entered the study with diagnosed Stage IV breast cancer, 91 with Stage IV colon/rectal cancer, 34 with Stage IV head/neck cancer, 86 with Stage IV lung cancer, 32 with Stage IV non-Hodgkin's lymphoma (NHL), 28 with Stage IV melanoma, 36 with Stage IV ovarian cancer, 37 with Stage IV pancreatic cancer, 76 with Stage IV prostate cancer, 18 with Stage IV renal cancer, 23 with Stage IV sarcoma, and 34 with Stage IV uterine cancer.
Many of the enrolled subjects in this clinical study presented with Stage IV cancer that had persisted for many months, and in many cases years, following a prior Stage IV cancer diagnosis, and after having undergone one or more failed rounds of conventional oncotherapy (typically a combination of surgery, chemotherapy, radiation and/or hormonal therapy as indicated). These subjects are classified as “non-responsive” to conventional oncotherapy. A majority of the remaining study subjects enrolled in our study after an original Stage III or Stage IV cancer diagnosis, followed by conventional oncotherapy prior to the study, and presented at the time of study enrollment with disease progression to Stage IV cancer or with relapse of a prior, treated cancer. These subjects are classified as “treatment resistant” or “refractory” Stage IV cancer patients.
All patients remained throughout the study period in contact with medical providers who maintained regular monitoring of the subject's disease condition (with regular exams, including blood work testing for cancer markers, cytology, CT scans, PET scans, biopsy where indicated, and other diagnostic monitoring). Many of the study patients, while classified as having “treatment-resistant” Stage IV disease, nonetheless continued with some form of conventional oncotherapy (e.g., low dose chemotherapy) as recommended by their oncologist. […] About half of these subjects received conventional dose chemotherapy at some point, while the remainder received “low dose chemotherapy” (e.g., using a 10-15% dosing of a standard chemotherapeutic drug such as a taxane). […] Additionally, patients with breast cancer, ovarian cancer, uterine cancer and prostate cancer remained on any oncologist-prescribed hormonal therapy.
In certain cases, all 15 iv treatments were administered over a consecutive 15-day period, while in others the 15 iv treatments were scheduled over as much as a one-month period to accommodate patient scheduling factors.
All subjects were regularly examined for diagnostic cancer indicators, assessed according to standard methods.

[1] = Stage IV Non-Hodgins Lymphoma, number of patients out of 32 studied
[2] = Stage IV breast cancer, number of patients out of 128 studied
[3] = Stage IV colon/rectal cancer, number of patients out of 91 studied
[4] = Stage IV head/neck cancer, number of patients out of 34 studied
[5] = Stage IV lung cancer, number of patients out of 86 studied
[6] = Stage IV melanoma, number of patients out of 29 studied
[7] = Stage IV non-Hodgkin's lymphoma
[8] = Stage IV ovarian cancer, number of patients out of 36 studied
[9] = Stage IV pancreatic cancer, number of patients out of 37 studied
[10] = Stage IV prostate cancer, number of patients out of 76 studied
[11] = Stage IV renal cancer, number of patients out of 18 studied
[12] = Stage IV sarcoma, number of patients out of 23 studied
[13] = Stage IV uterine cancer, number of patients out of 34 studied

Substance: 4-(beta-D-allopyranosyloxy)-benzaldehyde [Salicinium]
- therapeutic benefit (rates of stable disease, remission and survival) in smaller study groups (51 additional patients: ALL, AML, astrocytoma, bladder, CLL, esophageal, gall bladder, stomach, glioblastoma, Hodgkin's, liver, mesothelioma, myeloma, testicular, thyroid, five years): significant therapeutic benefits
- Complete Remission, patient status through end of five year study period [1]: 6
- Not Surviving, patient status through end of five year study period [1]: 15
- Partial Remission, patient status through end of five year study period [1]: 5
- Stable Disease, patient status through end of five year study period [1]: 6
- five-year survival rate (Stage IV breast cancer): 69%
- patients with stable disease or in partial remission at end of five-year study (Stage IV breast cancer): 53%
- increase in five-year survival expectancy versus NIH median (Stage IV breast cancer, from 16% (NIH median) to 69%): greater than four-fold increase
- Complete Remission, patient status through end of five year study period [2]: 21
- Not Surviving, patient status through end of five year study period [2]: 39
- Partial Remission, patient status through end of five year study period [2]: 30
- Stable Disease, patient status through end of five year study period [2]: 38
- patients in complete remission at end of five-year study (Stage IV breast cancer, of 128 enrolled): 16%
- patients in total remission (Stage IV colon/rectal cancer): 5%
- patients surviving with stable disease or partial remission (Stage IV colon/rectal cancer): 56%
- total five-year survival percentage (Stage IV colon/rectal cancer, 91 patients): 61%
- survival versus NIH median survival (Stage IV colon/rectal cancer, NIH median 8-15% (average 11.5%)): more than five-times greater
- Complete Remission, patient status through end of five year study period [3]: 5
- Not Surviving, patient status through end of five year study period [3]: 35
- Partial Remission, patient status through end of five year study period [3]: 15
- Stable Disease, patient status through end of five year study period [3]: 36
- five-year survival (Stage IV head/neck cancer): 53%
- subjects in complete remission (Stage IV head/neck cancer): 12%
- subjects stable or in partial remission (Stage IV head/neck cancer): 41%
- Complete Remission, patient status through end of five year study period [4]: 4
- Not Surviving, patient status through end of five year study period [4]: 16
- Partial Remission, patient status through end of five year study period [4]: 0
- Stable Disease, patient status through end of five year study period [4]: 14
- five-year survival (Stage IV lung cancer): 62%
- patients stable or in partial remission (Stage IV lung cancer): 56%
- total remission rate (Stage IV lung cancer): 6%
- increase in survival expectancy compared to NIH published data (Stage IV lung cancer, NIH median survival 50%): > 10%
- Complete Remission, patient status through end of five year study period [5]: 5
- Not Surviving, patient status through end of five year study period [5]: 33
- Partial Remission, patient status through end of five year study period [5]: 10
- Stable Disease, patient status through end of five year study period [5]: 38
- five-year survival (Stage IV melanoma): 52%
- increase in patient survival over median survival (Stage IV melanoma, NIH 15-20%, average 17.5%): about a three-fold increase
- Complete Remission, patient status through end of five year study period [6]: 0
- Not Surviving, patient status through end of five year study period [6]: 14
- Partial Remission, patient status through end of five year study period [6]: 8
- Stable Disease, patient status through end of five year study period [6]: 7
- five-year survival [7]: 53%
- subjects in total remission [7]: 19%
- subjects stable or in partial remission [7]: 34%
- overall five-year survival rate (Stage IV ovarian cancer): 55%
- subjects in complete remission at end of study (Stage IV ovarian cancer): More than 10%
- survival versus NIH median survival (Stage IV ovarian cancer, NIH median 17%): more than three times
- Complete Remission, patient status through end of five year study period [8]: 4
- Not Surviving, patient status through end of five year study period [8]: 16
- Partial Remission, patient status through end of five year study period [8]: 5
- Stable Disease, patient status through end of five year study period [8]: 11
- five-year survival rate (Stage IV pancreatic cancer): 46%
- survival versus median survival expectancy (Stage IV pancreatic cancer, NIH median 4%): more than 11 times
- Complete Remission, patient status through end of five year study period [9]: 0
- Not Surviving, patient status through end of five year study period [9]: 20
- Partial Remission, patient status through end of five year study period [9]: 0
- Stable Disease, patient status through end of five year study period [9]: 17
- five-year survival (Stage IV prostate cancer): 78%
- patients in total disease remission (Stage IV prostate cancer): 20%
- patients surviving in stable or partial remission status (Stage IV prostate cancer): 58%
- survival versus NIH published median survival (Stage IV prostate cancer, NIH median 33%): more than double
- Complete Remission, patient status through end of five year study period [10]: 15
- Not Surviving, patient status through end of five year study period [10]: 16
- Partial Remission, patient status through end of five year study period [10]: 23
- Stable Disease, patient status through end of five year study period [10]: 22
- five-year survival (Stage IV renal cancer): 56%
- subjects in total remission (Stage IV renal cancer): 17%
- subjects stable or in partial remission (Stage IV renal cancer): 39%
- Complete Remission, patient status through end of five year study period [11]: 3
- Not Surviving, patient status through end of five year study period [11]: 8
- Partial Remission, patient status through end of five year study period [11]: 0
- Stable Disease, patient status through end of five year study period [11]: 7
- five-year survival (Stage IV sarcoma): 48%
- subjects in total remission (Stage IV sarcoma): 9%
- subjects stable or in partial remission (Stage IV sarcoma): 39%
- Complete Remission, patient status through end of five year study period [12]: 2
- Not Surviving, patient status through end of five year study period [12]: 12
- Partial Remission, patient status through end of five year study period [12]: 2
- Stable Disease, patient status through end of five year study period [12]: 7
- five-year survival (Stage IV uterine cancer): 47%
- subjects in total remission (Stage IV uterine cancer): 5%
- subjects stable or in partial remission (Stage IV uterine cancer): 41%
- Complete Remission, patient status through end of five year study period [13]: 2
- Not Surviving, patient status through end of five year study period [13]: 18
- Partial Remission, patient status through end of five year study period [13]: 4
- Stable Disease, patient status through end of five year study period [13]: 10
